One data set concerns L-type calcium channels. Description: DM-BODIPY binding competition by flow cytometry in T cell leukemia cell lines. Also noted: species or system human. The note with it: ten-fold excess (S)-(−)-Bay K8644 over 1 μM DM-BODIPY; Jurkat, MOLT-4, CEM, Loucy, SUP-T1. The text has this:
In another method of determining whether a test compound is binding L-type channels, competition with DM-BODIPY dyes is used. Such assays employ DM-BODIPY (Molecular Probes, Eugene, […].), a dihydropyridine analog that is covalently attached to the BODIPY dye. The DM-BODIPY dye binds to L-type calcium channels on the cell surface and can be assessed by flow-cytometry. Accordingly, a test compound can be used in a competition assay with a DM-BODIPY dye. If the test compound is able to compete for binding of the DM-BODIPY dye to a cell expressing an LVCa(v) polypeptide, the test compound is a candidate compound for binding to the LVCa(v) polypeptide and being a modulator of the activity of that channel.
To ascertain the levels of L-type channel expression at the cell surface, cells were stained with an ester form of DM-BODIPY (Molecular Probes, Inc., Eugene, Oreg., catalog no. D-2183) at final concentration of 1 μM in PBS (phosphate buffered saline). Competition of DM-BODIPY binding was performed with a ten-fold excess (S)-(−)-Bay K8644 (Sigma-Aldrich). Analysis was performed using flow cytometry (Becton Dickinson). FIG. 22A illustrates the results of the DM-BODIPY binding experiments. […]
(In general: In flow cytometry, cells or beads pass a laser one at a time.)

Another data set deals with L-type calcium channel. Put plainly: Whole-cell patch clamp of L-type currents in Jurkat T cells. In kind it is cell-based, human. Here is the method:
In these patch clamp experiments, Jurkat cells that were grown in suspension cultures were washed once with standard external solution and plated directly onto the experimental bath chamber. Cells were kept in a standard modified Ringer's solution of the following composition (in mM): […] pipette-filling solutions for voltage-gated L-type channels contained (in mM): […], the above solution was replaced by an otherwise identical extracellular solution in which 10 μM Bay K was added to the bath. Intracellular pipette-filling solutions for voltage-gated L-type channels in some cases contained (in mM): Cs-glutamate 120, NaCl 8, MgCl2 1, MgATP 2, NaGTP 0.3, Cs-BAPTA 10, Hepes-CsOH 10, pH 7.2. Patch clamp experiments were performed in the tight-seal whole-cell configuration at 24±2° C. High-resolution current recordings were acquired by a computer-based patch clamp amplifier system (EPC-9, HEKA, Lambrecht, Germany). Patch pipettes had resistances between 2-4 MΩ after filling with the standard intracellular solution. For L-type current measurements the holding potential was −80 mV and the duration of the ramp was 100 ms for optimal L-type current size. All voltages were corrected for a liquid junction potential of 10 mV between external and internal solutions. Currents were filtered at 2.3 kHz and digitized at 100 μs intervals. Capacitive currents and series resistance were determined and corrected before each voltage ramp using the automatic capacitance compensation of the EPC-9. For ICRAC analysis, the very first ramps prior to current activation were digitally filtered at 2 kHz, pooled and used for leak-subtraction of all subsequent current records. The low-resolution temporal development of currents at a given potential was extracted from the leak-corrected individual ramp current records by measuring the current amplitudes at voltages of −80 mV or +80 mV, respectively. Similarly, one of the first ramps could be used as leak-subtraction for L-type currents, as the currents developed over a time course of 6-8 seconds, indicating recovery from inactivation. Where applicable, statistical errors of averaged data are given as means±S.E.M. with n determinations and statistical significance was assessed by Student's t-test.
For measurements of the L-type current with barium as the charge carrier, whole cell voltage-clamp recordings were performed using an Axopatch 200 amplifier (Axon Instruments) in a bath consisting of 135 mM choline Cl, 10 mM HEPES, 1 mM MgCl2 and 20 mM BaCl2, adjusted to a pH of 7.2 with CsOH. The internal solution consisted of 135 mM CsCl, 10 mM HEPES, 1 mM EGTA, 1 mM EDTA, and 4 mM Mg-ATP, adjusted to a pH of 7.2 with CsOH. Pclamp 8 software was used for data acquisition (Axon Instruments). For square pulse protocols, data were filtered at 2 kHz and sampled at 10 kHz. Patch electrodes were 3.8-4.4 MΩ when filled with internal solution. Leak subtraction was performed online using a P/-4 protocol. 75% series resistance compensation was used with a 10 μs lag. Statistical references indicate the mean±s.e. After forming the whole-cell patch, cells were lifted off the bottom of the dish and placed in front of an array of perfusion tubes made of 250 μm internal diameter quartz tubing (Polymicro Technologies, Phoenix, Ariz.) connected by Teflon tubing to glass reservoirs. […]

Data set [1] concerns L-type channels. Put plainly: DM-BODIPY staining (flow cytometry) of siRNA-expressing Jurkat cells. The data set is classed as cell-based, human. As for the experimental part:
(§1) This consensus sequence was used in the design of a sequence that would express an siRNA for stable expression of a hairpin loop containing the consensus sequence. The sequence was cloned into the psiRNA-hHlzeo vector (Invitrogen, San Diego, Calif.), the sequence was verified, and Jurkat cells were transfected with it. To select clones that were positive for expression of the hairpin, 400 micrograms/ml of zeocin was added 24 hours after transfection. […] Independent, individual clones were also generated in parallel. […] Thus, loss of L-type channel expression also correlates with decreased proliferation of Jurkat T cells.
First, control wild type (WT) and L-type siRNA-expressing (LT1) Jurkat T cells were stained with DM-BODIPY and analyzed by flow cytometry (Un indicates unstained cells). The LT1 cells were transfected with an siRNA sequence that targets the majority of L-type channels, and was designed based on sequence consensus of the human L-type calcium channels.

The subject of data set [2] is L-type channels. Description: Calcium flux in siRNA-expressing Jurkat cells. The data set is classed as cell-based, human. To be noted: pool of zeocin-resistant Jurkat clones. Here is the method:
To assess the effect of expressing the mutant three-domain Ca(v)1.3 on calcium influx in cells, bulk calcium assays were performed using fura-2 (Molecular Probes) ratiometric imaging according to the manufacturer's recommendations. Fura-2 is a calcium-sensitive dye. When excited at short ultra-violet wavelengths (340 nm) the fluorescence of fura-2 increases with increasing calcium concentration, whereas fluorescence decreases with increasing calcium concentration at longer wavelengths (380 nm). By forming a ratio of successive images obtained at each wavelength, a measure of calcium concentration inside the fura-2 loaded cell is obtained.
as §1
(Calcium flux is commonly read through the fluorescence of an indicator in the cells.)

Another data set deals with Jurkat T cells. Description: Growth and cell numbers of siRNA-expressing Jurkat clones. In kind it is cell-based, human. Here is the method: as §1
Jurkat cells were stably transfected with each of the siRNA constructs and pools of clones of each were analyzed. RT-PCR was performed on samples from the clones to detect expression of Ca(v)1.3.

In the case of `COC(=O)C1=C(C)NC(C)=C([N+](=O)[O-])[C@H]1c1ccccc1C(F)(F)F` [BayK8644, (S)-(−)-Bay K8644], in the data set on L-type calcium channels, the “DM-BODIPY binding competed by BayK8644” value is given as “competed”. Also, the “reversibility of agonist effect when washed out” value in the data set on L-type calcium channel (Jurkat cells) is recorded as “reversible”. In addition, the “cells with discernible DHPR (L-type calcium channel) currents” value with L-type calcium channel (Jurkat cells tested in the presence of BayK8644) is “Five of eleven”. Besides, in the data set with L-type calcium channel (Jurkat cells, 10 μM BayK8644, calcium as charge carrier, n=5, +/− s.e.m.), the average current densities is 1+/−0.3 pA/pF. Also, in the data set with L-type calcium channel (Jurkat cells, in presence of the L-type agonist, calcium as charge carrier), the peak current increase entry is given as “five-fold”.
For the compound `CCCCCCCCCCCCCC(=O)O[C@@H]1[C@@H](C)[C@@]2(O)[C@@H](C=C(CO)C[C@]3(O)C(=O)C(C)=C[C@@H]23)[C@@H]2C(C)(C)[C@]12OC(C)=O` [PMA, phorbol 12-myristate 13-acetate], the L-type current amplitude result in the data set with L-type calcium channel (Jurkat cells pre-treated with PMA) is reported as “significantly increased”.
On to “LT1 (DNA AACTGTGAGCTGGACAAGAA; chemistry not given here)”, for which, in the data set with L-type channels [1] (independent, individual Jurkat clones), the “reduction in DM-BODIPY binding” value is “approximately 90%”. Moreover, the DM-BODIPY binding entry in the data set on L-type channels [1] (pool of zeocin-resistant Jurkat clones) is reported as “decrease”. Further, the “decrease of surface expression of L-type channels” value with L-type channels [1] (stable siRNA expression in Jurkat T cells, DM-BODIPY staining) is “about 90%”. Also, the calcium flux result in the data set with L-type channels [2] was “marked decrease”. Also, the growth of clones entry with Jurkat T cells (individual siRNA-expressing Jurkat clones) was “slow rate of growth”; with Jurkat T cells (individual siRNA-expressing Jurkat clones, listed as consensus sequence) it was “grew very slowly”; in the data set on Jurkat T cells (pool of zeocin-resistant Jurkat clones, bulk culture) it was “grew more slowly”.
